How the values were obtained:
[1] = test system: human colon cancer HCT15 cells; assay: RT-PCR of MT3 transcription in HCT15 cells; format: cell-based; details: 16 hours, real-time RT-PCR normalized against beta-actin (FIG. 1)
Method: FIG. 1. […] HCT15 cells were treated with HDAC inhibitors or indicated compounds for 16 hours before total RNAs are isolated. RNA levels of MT3 were measured by real-time RT-PCR and are subsequently normalized against β-actin.
Colon cancer HCT15 cells were exposed to 1 μM MGCD0103 for various amounts of time, and MT3 RNA levels were monitored by conventional semi-quantitative RT-PCR. Maximal induction is achieved between 8 h and 24 h of exposure and maintained through 72 h.
RNA was extracted from 8×10^6 cells using the Qiagen RNeasy Mini kit (cat#74106, Qiagen, Missisauga Ont.) following the manufacturer's instructions. RT reaction was performed using the Expand Reverse Transcriptase kit from Roche (Cat#1 785 834 Roche Applied Biosciences, Laval, Que) with 1 μg total RNA together with 1 μl oligo(dT) primer (cat#y01212, Invitrogen-Canada, Burlington, Ont). cDNA was synthesized using an Eppendorf Mastercycler gradient PCR apparatus (Brinkmann Instruments Canada LTD., Mississauga, Ontario), using a two cycle protocol. For the 1st cycle reaction mixture (0.5 μl H2O, 4 μl of 5× Buffer, 2 μl DTT, 2 ul of 10 mM dNTPs, 0.5 μl RNAsin (cat#N211B, Promega, Fisher Scientific, Whitby, Ont.) and […] of the Expand Reverse Transcriptase (Cat#1785834, Roche, Laval, Quebec)) was incubated at 65° C. for 10 minutes and then set on ice. A second cycle was performed at 42° C. for 1 hour. The resulting cDNA products were kept at 4° C. until used.
One ul of the resulting cDNA was used for every amplification reaction with 18.9 ul H2O, 1.25 ul of 10 mM dNTPs, 0.5 ul of each primer pair, 2.5 ul of 10× Buffer. The PCR reaction was carried out in an Eppendorf Mastercycler gradient. The sequences of the primers used for the amplification of selected biomarkers, as well as the details of the PCR reaction cycles are featured below. All buffers came from Expand Long Template PCR system (Roche, Laval, Quebec, Cat#11681842001). All primers were synthesized by Invitrogen (Invitrogen-Canada, Burlington, Ont.)
Analysis of transcripts was performed using STORM 860 (Amersham Biosciences, Baie d'Urfe, Qubec). Transcription of genes was normalized to transcription of actin, which was performed in the same RT-PCR reaction. The relative expression level of gense was normalized to baseline signals.
Quantitative PCR with SYBR Green I detection with Mastercycler® ep realplex (Eppendorf) was performed using LightCycler® 480 SYBR Green I Master (Roche Diagnostics). SYBR Green I assays were performed with 600 nM primers. All other reaction conditions were as described by the manufacturer. Amplification conditions were 5 minutes of initial denaturation at 95° C., followed by 40 cycles of each 15 seconds at 95° C., 15 seconds at 63.4° C., 20 seconds at 68° C., a melting curve from 60° C. to 95° C. was recorded. Quantification was performed using Pfaffl method, a relative quantification method in real-time PCR (Nucleic Acids Research 2001 29:2002-2007). Primers were synthesized by Invitrogen (Invitrogen-Canada, Burlington, Ont.).

[2] = test system: peripheral blast cells from AML patients; details: ex vivo treatment (Nebbioso et al. 2004); cited from earlier work

| SMILES | Induction of transcription of MT3 [1] | level of pro-apoptotic TRAIL expression [2] |
| --- | --- | --- |
| Nc1ccccc1NC(=O)c1ccc(CNC(=O)OCc2cccnc2)cc1 [MS-275] | induced | increase |
| O=C(CCCCCCC(=O)Nc1ccccc1)NO [SAHA] | induced | – |
